Data as given in patent publication US20110039762A1, “TARGETED ANTIMICROBIAL MOIETIES” (C3 JIAN, INC., priority 2009, published 2011).
“Also recorded” adds a separate entry of the source.

Key:
C. jeikeium = experiment: Kill or inhibit growth/proliferation; morphology, biofilm and growth disruption (Tables 5, 6); format: cell-based, Corynebacterium jeikeium; parameters: key: A: Peptide aggregates; B: Less hyphal formation; Clumps; Diffuse clumps and small polyps; F: Diffuse growth; H: Thin; I: Growth inhibition; Microcolony formation; Rippled; Small polyps; Thick; W: Halo formation on top, microlonies on bottom; note: test concentration or dose not given here
[1] = tested on: microorganisms (e.g., bacteria, yeasts, fungi); experiment: Targeting peptide binding to target microorganisms (Table 3); settings: preferably 1x PBS; for Target(s): microorganism(s) the targeting peptide binds
microorganisms = experiment: Peptides having multiple activities (targeting/binding, antimicrobial, growth or phenotype altering)
Excerpt: In certain embodiments, peptides described herein can have multiple activities. Thus for example, a peptide can have both binding/targeting activity and antimicrobial activity. Such peptides can be used, e.g., in a chimeric construct, for any or all of these properties. Thus, for example, a peptide designated “B” in Table 8 can be used as a targeting peptide. If it is also designated G or M it can also be used for antimicrobial activity.

E. coli = experiment: Kill or inhibit growth/proliferation; morphology, biofilm and growth disruption (Tables 5, 6); format: cell-based, Escherichia coli; parameters: key: A: Peptide aggregates; B: Less hyphal formation; Clumps; Diffuse clumps and small polyps; F: Diffuse growth; H: Thin; I: Growth inhibition; Microcolony formation; Rippled; Small polyps; Thick; W: Halo formation on top, microlonies on bottom; note: test concentration or dose not given here
MRSA = experiment: as above; format: cell-based, Methicillin-resistant Staphylococcus aureus; parameters: key: A: Peptide aggregates; B: Less hyphal formation; Clumps; Diffuse clumps and small polyps; F: Diffuse growth; H: Thin; I: Growth inhibition; Microcolony formation; Rippled; Small polyps; Thick; W: Halo formation on top, microlonies on bottom
S. pneumoniae = experiment: as above; format: cell-based, Streptococcus pneumoniae; parameters: key: A: Peptide aggregates; B: Less hyphal formation; Clumps; Diffuse clumps and small polyps; F: Diffuse growth; H: Thin; I: Growth inhibition; Microcolony formation; Rippled; Small polyps; Thick; W: Halo formation on top, microlonies on bottom
E. faecalis = experiment: as above; format: cell-based, Enterococcus faecalis; parameters: key: A: Peptide aggregates; B: Less hyphal formation; Clumps; Diffuse clumps and small polyps; F: Diffuse growth; H: Thin; I: Growth inhibition; Microcolony formation; Rippled; Small polyps; Thick; W: Halo formation on top, microlonies on bottom
S. epidermidis = experiment: as above; format: cell-based, Staphylococcus epidermidis; parameters: key: A: Peptide aggregates; B: Less hyphal formation; Clumps; Diffuse clumps and small polyps; F: Diffuse growth; H: Thin; I: Growth inhibition; Microcolony formation; Rippled; Small polyps; Thick; W: Halo formation on top, microlonies on bottom
C. jejuni = experiment: as above; format: cell-based, Campylobacter jejuni; parameters: key: A: Peptide aggregates; B: Less hyphal formation; Clumps; Diffuse clumps and small polyps; F: Diffuse growth; H: Thin; I: Growth inhibition; Microcolony formation; Rippled; Small polyps; Thick; W: Halo formation on top, microlonies on bottom
M. luteus = experiment: as above; format: cell-based, Micrococcus luteus; parameters: key: A: Peptide aggregates; B: Less hyphal formation; Clumps; Diffuse clumps and small polyps; F: Diffuse growth; H: Thin; I: Growth inhibition; Microcolony formation; Rippled; Small polyps; Thick; W: Halo formation on top, microlonies on bottom
[2] = binding in aqueous buffers depending on peptide solubility
[3] = peptide binding conducted in aqueous buffers varied by peptide solubility
Throughout, for Organism, effect: test concentration or dose not given here.

## PF-133: peptide having multiple activities (GDPTAGQKPVECP; Peptide with targeting and/or antimicrobial activity)
C. jeikeium
  Organism, effect: C. jeikeium (R)
[1]; [2]
  Target(s): S. epidermidis; also recorded: C. jeikeium; also recorded: C. jejuni; also recorded: M. smegmatis
microorganisms
  Activities: G B

## PF-135: peptide having multiple activities (PPARPARIPQTPTLHGASLFRQRS; Peptide with targeting and/or antimicrobial activity)
C. jeikeium
  Organism, effect: C. jeikeium (R)
[1]; [2]
  Target(s): S. epidermidis and M. luteus and E. coli and P. aeruginosa and MRSA and C. jeikeium and M. smegmatis
microorganisms
  Activities: G B

## PF-164: peptide having multiple activities (EEVSRALAGIGLGLGCRIG; Peptide with targeting and/or antimicrobial activity)
C. jeikeium
  Organism, effect: C. jeikeium (R)
[1]; [2]
  Target(s): S. epidermidis; also recorded: M. luteus; also recorded: E. coli; also recorded: C. jeikeium
microorganisms
  Activities: G B

## PF-188: peptide having multiple activities (ARTFAGRLGTRYFGGLMRSTKA; Peptide with targeting and/or antimicrobial activity)
C. jeikeium
  Organism, effect: C. jeikeium (H)
[1]; [2]
  Target(s): S. epidermidis and M. luteus and E. coli and C. albicans and MRSA and E. faecalis
microorganisms
  Activities: G B

## PF-390: peptide having multiple activities (chain 1 VVAYVITQVGAIRF; chain 2 VVAYVITQVGAIRF; Peptide with targeting and/or antimicrobial activity)
E. coli
  Organism, effect: E. coli (C)
MRSA
  Organism, effect: MRSA (D)
S. pneumoniae
  Organism, effect: S. pneumoniae (D)
[1]; [3]
  Target(s): S. epidermidis and P. aeruginosa and C. albicans and MRSA
E. faecalis
  Organism, effect: E. faecalis (D)
S. epidermidis
  Organism, effect: S. epidermidis (D)
C. jejuni
  Organism, effect: C. jejuni (D)
microorganisms
  Activities: G B

## PF-562: peptide having multiple activities (chain 1 TPEQWLERSTVVVTGLLNRK; chain 2 TPEQWLERSTVVVTGLLNRK; Peptide with targeting and/or antimicrobial activity)
M. luteus
  Organism, effect: M. luteus (R)
MRSA
  Organism, effect: MRSA (M)
S. pneumoniae
  Organism, effect: S. pneumoniae (D)
S. epidermidis
  Organism, effect: S. epidermidis (A)
C. jejuni
  Organism, effect: C. jejuni (R)
microorganisms
  Activities: G B

## PF-584: peptide having multiple activities (SYIKNLSNQKFLIAF; Peptide with targeting and/or antimicrobial activity)
E. coli
  Organism, effect: E. coli (C)
MRSA
  Organism, effect: MRSA (D)
S. pneumoniae
  Organism, effect: S. pneumoniae (D)
[1]; [3]
  Target(s): S. epidermidis and M. luteus and P. mirabilis and C. albicans and MRSA and S. pneumoniae and E. faecalis and C. jeikeium
E. faecalis
  Organism, effect: E. faecalis (D)
S. epidermidis
  Organism, effect: S. epidermidis (C)
C. jejuni
  Organism, effect: C. jejuni (D)
microorganisms
  Activities: G B

## PF-598: peptide having multiple activities (MKFMLEVRNKAISAYKEITRTQI; Peptide with targeting and/or antimicrobial activity)
E. coli
  Organism, effect: E. coli (C)
MRSA
  Organism, effect: MRSA (D)
S. pneumoniae
  Organism, effect: S. pneumoniae (R)
[1]; peptide binding in aqueous buffers varied by peptide solubility
  Target(s) (microorganisms bound by the targeting peptide): S. epidermidis and M. luteus and P. mirabilis and P. aeruginosa and C. albicans and MRSA and S. pneumoniae and C. jeikeium
E. faecalis
  Organism, effect: E. faecalis (R)
S. epidermidis
  Organism, effect: S. epidermidis (R)
C. jejuni
  Organism, effect: C. jejuni (R)
microorganisms
  Activities: G B
